Each block holds one compound with its values, some of them ahead of it.
Experiments:
Format in all cases: in vivo
Abutilon theophrasti [1] = test: Herbicidal action post-emergence (greenhouse pot trial); details: scored visually after about 3 weeks vs untreated controls
In short: (§1)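 Post-emergence spray at one-leaf stage (2–3 wk after sowing, sandy loam, greenhouse); WP/EC in water + 0.5% additive; 600 L/ha; rate 80 g/ha or less. Visual % efficacy at ~3 wk vs untreated (100 = dead).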

Amaranthus retroflexus [2] = test: as above; details: scored visually after about 3 weeks vs untreated controls
In short: as §1

Matricaria inodora [3] = test: as above; details: scored visually after about 3 weeks vs untreated controls
In short: as §1

Polygonum convolvulus [4] = test: as above; details: scored visually after about 3 weeks vs untreated controls
In short: as §1

Veronica persica [5] = test: as above
In short: as §1

Viola tricolor [6] = test: as above
In short: as §1

Oryza sativa [7] = test: Crop compatibility post-emergence (greenhouse pot trial); details: application rate 20 g/ha
In short: (§2)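 Visual % rating about 3 weeks post-treatment against untreated plants (100% dead, 0% unaffected). Post-emergence spray of aqueous WP/EC preparations with 0.5% additive at 600 L/ha water, applied at one-leaf stage to greenhouse pot-grown crops in sandy loam.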

Triticum aestivum = test: as above; details: application rate 20 g/ha
In short: as §2

Zea mays [8] = test: as above
In short: as §2

Abutilon theophrasti [9] = test: Herbicidal action pre-emergence (greenhouse pot trial); details: scored after about 3 weeks
In short: (§3)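 Pre-emergence soil-surface spray, 320 g/ha or lower, WP/EC formulations in water with 0.5% additive, 600 L/ha. Greenhouse, ~3 wk. Visual % efficacy vs untreated controls (100% = plants dead, 0% = like control).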

Amaranthus retroflexus [10] = test: as above; details: scored after about 3 weeks
In short: as §3

Matricaria inodora [11] = test: as above; details: scored after about 3 weeks
In short: as §3

Polygonum convolvulus [12] = test: as above; details: application rate 80 g/ha, scored after about 3 weeks
In short: as §3

Veronica persica [13] = test: as above
In short: as §3

Viola tricolor [14] = test: as above; details: scored after about 3 weeks
In short: as §3

Glycine max = test: Crop compatibility pre-emergence (greenhouse pot trial); details: application rate 80 g/ha, effect vs untreated controls
In short: (§4)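 Crop plants were sown and covered with soil, then the soil surface was treated with formulated compound as an aqueous suspension or emulsion containing 0.5% additive, applied at a water rate equivalent to 600 L/ha. Damage was rated visually in percent relative to untreated pots after roughly three weeks in the greenhouse.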

Zea mays [15] = test: as above; details: application rate 80 g/ha, effect vs untreated controls
In short: as §4

Alopecurus myosuroides [16] = test: Herbicidal action post-emergence (greenhouse pot trial); details: application rate 80 g/ha, scored visually after about 3 weeks vs untreated controls
In short: as §1

Avena fatua [17] = test: as above; details: application rate 80 g/ha, scored visually after about 3 weeks vs untreated controls
In short: as §1

Echinochloa crus-galli [18] = test: as above; details: scored visually after about 3 weeks vs untreated controls
In short: as §1

Pharbitis purpurea [19] = test: as above
In short: as §1

Setaria viridis [20] = test: as above; details: scored visually after about 3 weeks vs untreated controls
In short: as §1

Stellaria media [21] = test: as above; details: scored visually after about 3 weeks vs untreated controls
In short: as §1

Alopecurus myosuroides [22] = test: Herbicidal action pre-emergence (greenhouse pot trial); details: application rate 320 g/ha, scored after about 3 weeks
In short: as §3

Avena fatua [23] = test: as above; details: application rate 320 g/ha
In short: as §3

Echinochloa crus-galli [24] = test: as above; details: scored after about 3 weeks
In short: as §3

Pharbitis purpurea [25] = test: as above
In short: as §3

Setaria viridis [26] = test: as above; details: scored after about 3 weeks
In short: as §3

Stellaria media [27] = test: as above; details: scored after about 3 weeks
In short: as §3

Oryza sativa [28] = test: Crop compatibility pre-emergence (greenhouse pot trial); details: effect vs untreated controls
In short: as §4

Digitaria sanguinalis [29] = test: Herbicidal action post-emergence (greenhouse pot trial); details: application rate 20 g/ha
In short: as §1

Digitaria sanguinalis [30] = test: Herbicidal action pre-emergence (greenhouse pot trial); details: application rate 80 g/ha
In short: as §3

Oryza sativa (Efficacy in %) (Oryza sativa [7]): 0%
Triticum aestivum (Efficacy in %) (Triticum aestivum): 20%
Zea mays (Efficacy in %) (Zea mays [8]; application rate 20 g/ha): 10%
Glycine max (Efficacy in %) (Glycine max): 0%
Zea mays (Efficacy in %) (Zea mays [15]): 0%
SMILES: CC(Sc1cc(-n2c(=O)cc(C(F)(F)F)n(C)c2=O)c(F)cc1Cl)C(=O)OCC1CCCS1 (centres unmarked) [I.1-81]
Abutilon theophrasti (Efficacy in %) (Abutilon theophrasti [1]; application rate 20 g/ha): 100%
Amaranthus retroflexus (Efficacy in %) (Amaranthus retroflexus [2]; application rate 20 g/ha): 100%
Matricaria inodora (Efficacy in %) (Matricaria inodora [3]; application rate 20 g/ha): 90%
Polygonum convolvulus (Efficacy in %) (Polygonum convolvulus [4]; application rate 20 g/ha): 90%
Veronica persica (Efficacy in %) (Veronica persica [5]; application rate 20 g/ha): 100%
Viola tricolor (Efficacy in %) (Viola tricolor [6]; application rate 20 g/ha): 100%
Abutilon theophrasti (Efficacy in %) (Abutilon theophrasti [9]; application rate 80 g/ha): 100%
Amaranthus retroflexus (Efficacy in %) (Amaranthus retroflexus [10]; application rate 80 g/ha): 100%
Matricaria inodora (Efficacy in %) (Matricaria inodora [11]; application rate 80 g/ha): 80%
Polygonum convolvulus (Efficacy in %) (Polygonum convolvulus [12]): 100%
Veronica persica (Efficacy in %) (Veronica persica [13]; application rate 80 g/ha): 80%
Viola tricolor (Efficacy in %) (Viola tricolor [14]; application rate 80 g/ha): 100%

Zea mays (Efficacy in %) (Zea mays [8]; application rate 80 g/ha): 20%
Oryza sativa (Efficacy in %) (Oryza sativa [28]; application rate 80 g/ha): 0%
Zea mays (Efficacy in %) (Zea mays [15]): 20%
SMILES: Cn1c(C(F)(F)F)cc(=O)n(-c2cc(SCC(=O)NCC3CCCO3)c(Cl)cc2F)c1=O (centres unmarked) [I.8-271]
Abutilon theophrasti (Efficacy in %) (Abutilon theophrasti [1]; application rate 80 g/ha): 100%
Alopecurus myosuroides (Efficacy in %) (Alopecurus myosuroides [16]): 100%
Amaranthus retroflexus (Efficacy in %) (Amaranthus retroflexus [2]; application rate 80 g/ha): 100%
Avena fatua (Efficacy in %) (Avena fatua [17]): 90%
Echinochloa crus-galli (Efficacy in %) (Echinochloa crus-galli [18]; application rate 80 g/ha): 80%
Matricaria inodora (Efficacy in %) (Matricaria inodora [3]; application rate 80 g/ha): 100%
Pharbitis purpurea (Efficacy in %) (Pharbitis purpurea [19]; application rate 80 g/ha): 100%
Polygonum convolvulus (Efficacy in %) (Polygonum convolvulus [4]; application rate 80 g/ha): 100%
Setaria viridis (Efficacy in %) (Setaria viridis [20]; application rate 80 g/ha): 100%
Stellaria media (Efficacy in %) (Stellaria media [21]; application rate 80 g/ha): 100%
Veronica persica (Efficacy in %) (Veronica persica [5]; application rate 80 g/ha): 100%
Viola tricolor (Efficacy in %) (Viola tricolor [6]; application rate 80 g/ha): 100%
Abutilon theophrasti (Efficacy in %) (Abutilon theophrasti [9]; application rate 320 g/ha): 100%
Alopecurus myosuroides (Efficacy in %) (Alopecurus myosuroides [22]): 90%
Amaranthus retroflexus (Efficacy in %) (Amaranthus retroflexus [10]; application rate 320 g/ha): 100%
Avena fatua (Efficacy in %) (Avena fatua [23]): 90%
Echinochloa crus-galli (Efficacy in %) (Echinochloa crus-galli [24]; application rate 320 g/ha): 80%
Matricaria inodora (Efficacy in %) (Matricaria inodora [11]; application rate 320 g/ha): 100%
Pharbitis purpurea (Efficacy in %) (Pharbitis purpurea [25]; application rate 320 g/ha): 100%
Setaria viridis (Efficacy in %) (Setaria viridis [26]; application rate 320 g/ha): 100%
Stellaria media (Efficacy in %) (Stellaria media [27]; application rate 320 g/ha): 90%
Veronica persica (Efficacy in %) (Veronica persica [13]; application rate 320 g/ha): 100%
Viola tricolor (Efficacy in %) (Viola tricolor [14]; application rate 320 g/ha): 100%

Oryza sativa (Efficacy in %) (Oryza sativa [7]): 20%
Triticum aestivum (Efficacy in %) (Triticum aestivum): 20%
Zea mays (Efficacy in %) (Zea mays [8]; application rate 5 g/ha): 0%
Glycine max (Efficacy in %) (Glycine max): 0%
Oryza sativa (Efficacy in %) (Oryza sativa [28]; application rate 20 g/ha): 0%
Zea mays (Efficacy in %) (Zea mays [15]): 10%
SMILES: CCC(Sc1cc(-n2c(=O)cc(C(F)(F)F)n(C)c2=O)c(F)cc1Cl)C(=O)OCC1CCCO1 (centres unmarked) [I.2-71]
Abutilon theophrasti (Efficacy in %) (Abutilon theophrasti [1]; application rate 20 g/ha): 100%
Amaranthus retroflexus (Efficacy in %) (Amaranthus retroflexus [2]; application rate 20 g/ha): 100%
Digitaria sanguinalis (Efficacy in %) (Digitaria sanguinalis [29]): 100%
Echinochloa crus-galli (Efficacy in %) (Echinochloa crus-galli [18]; application rate 20 g/ha): 80%
Matricaria inodora (Efficacy in %) (Matricaria inodora [3]; application rate 20 g/ha): 100%
Pharbitis purpurea (Efficacy in %) (Pharbitis purpurea [19]; application rate 20 g/ha): 100%
Polygonum convolvulus (Efficacy in %) (Polygonum convolvulus [4]; application rate 20 g/ha): 100%
Setaria viridis (Efficacy in %) (Setaria viridis [20]; application rate 20 g/ha): 90%
Stellaria media (Efficacy in %) (Stellaria media [21]; application rate 20 g/ha): 100%
Veronica persica (Efficacy in %) (Veronica persica [5]; application rate 20 g/ha): 100%
Viola tricolor (Efficacy in %) (Viola tricolor [6]; application rate 20 g/ha): 100%
Abutilon theophrasti (Efficacy in %) (Abutilon theophrasti [9]; application rate 80 g/ha): 100%
Amaranthus retroflexus (Efficacy in %) (Amaranthus retroflexus [10]; application rate 80 g/ha): 100%
Digitaria sanguinalis (Efficacy in %) (Digitaria sanguinalis [30]): 100%
Echinochloa crus-galli (Efficacy in %) (Echinochloa crus-galli [24]; application rate 80 g/ha): 100%
Matricaria inodora (Efficacy in %) (Matricaria inodora [11]; application rate 80 g/ha): 100%
Pharbitis purpurea (Efficacy in %) (Pharbitis purpurea [25]; application rate 80 g/ha): 100%
Polygonum convolvulus (Efficacy in %) (Polygonum convolvulus [12]): 100%
Setaria viridis (Efficacy in %) (Setaria viridis [26]; application rate 80 g/ha): 100%
Stellaria media (Efficacy in %) (Stellaria media [27]; application rate 80 g/ha): 100%
Veronica persica (Efficacy in %) (Veronica persica [13]; application rate 80 g/ha): 100%
Viola tricolor (Efficacy in %) (Viola tricolor [14]; application rate 80 g/ha): 100%

Reference: patent US11497212B2, “Substituted thiophenyl uracils, salts thereof and the use thereof as herbicidal agents” (Syngenta Crop Protection AG, priority 2017, dated 2022)
